{"source": "patent US20140370594A1", "about": "“BIOLOGICAL CONVERSION OF BIOMASS-DERIVED SUGARS TO VALUE ADDED CHEMICALS” (WISCONSIN ALUMNI RESEARCH FOUNDATION, priority 2013, published 2014)", "key": {"[1]": {"test_system": "E. coli", "experiment": "Growth in minimal media supplemented with GVL, aerobic (FIGS. 9-13)", "assay_type": "cell-based, Escherichia coli", "conditions": "GVL concentrations of about 2% (wt/vol) and less, minimal medium", "experimental": "Overnight cultures of E. coli were started from single colonies picked into LB (5 mL) and incubated at 37° C. […] with 250 rpm shaking. The overnight cultures were used to inoculate test media (2 mL) to an OD600 (optical density at 600 nm) of 0.01. These cultures were then incubated as described below. The final OD600 of each culture was measured after 24 hours of incubation.\n(§1) Test media for E. coli and P. putida were made using MOPS minimal salts and either varying the weight percent of NaCl and GVL or varying dilutions of the aqueous product stream in water. L. casei test media were made using Chemically Defined Media for L. casei and yeast aerobic test media were made with Yeast Nitrogen Base (6.7 g/L; Difco, a wholly owned subsidiary of Becton Dickinson and Company, Franklin Lakes, N.J.). Yeast anaerobic media were made with Yeast Nitrogen Base and supplemented with Tween 80 (0.4 wt %) and amino acids (50 mg/L).\n(§2) The next step was to investigate the sensitivity of various microorganisms to salt concentration and GVL concentration. This was accomplished by measuring the growth of E. coli and yeasts in minimal media supplemented with known concentrations of GVL or NaCl under aerobic conditions. The results are depicted in FIGS. 9 through 13. FIG. 9 depicts the growth characteristics of E. coli TY05 in response to increasing concentrations of GVL. […]"}, "[2]": {"test_system": "yeast", "experiment": "Growth in minimal media supplemented with GVL, aerobic (FIGS. 9-13)", "assay_type": "cell-based", "conditions": "GVL concentrations of about 2% (wt/vol) and less, minimal medium", "experimental": "Yeast cultures were picked from single colonies and grown aerobically overnight in rich YPD broth (5 mL) (Sigma-Aldrich, St. Louis, Mo.) at 30° C. and 250 rpm. The yeast tested were Saccharomyces cerevisiae PE2 (Lallemand, Inc., Montreal, Quebec, Canada; see also Silva-Filho E A, Melo H F, Antunes D F, Santos S K B, Resende A M, Simões D A, Morais M A Jr, “Isolation by genetic and physiological characteristics of a fuel-ethanol fermentative Saccharomyces cerevisiae strain with potential for genetic manipulation,” J Ind Microbiol Biotechnol 2005, 32:481-486), Spathaspora passalidarum NN245 (ARS Culture Collection, NRRL Y-50740), Scheffersomyces stipitis 7124 (ATCC® 58376), and Scheffersomyces stipitis 6054 (ATCC® 58785).\nFor the aerobic test media growth experiments, an overnight culture was used to inoculate test media (2 mL) to an OD600 of 0.01. The test cultures were then incubated for 40 hours under the same conditions. A final OD600 was measured after the 40-hour incubation period.\nTest media for E. coli and P. putida were made using MOPS minimal salts and either varying the weight percent of NaCl and GVL or varying dilutions of the aqueous product stream in water. […]"}, "[3]": {"test_system": "E. coli and yeasts", "experiment": "Sensitivity of growth to GVL versus NaCl concentration (FIGS. 9-13)", "assay_type": "cell-based", "conditions": "minimal media supplemented with GVL or NaCl, aerobic", "text": "as §1\nas §2, with “GVL. FIG. 10 depicts the growth characteristics of S. cerevisiae in response to increasing concentrations of GVL. FIG. 11 depicts the growth characteristics of S. cerevisiae PE2 in response to increasing concentrations of NaCl. FIG. 12 depicts the growth characteristics of S. passalidarum NN245 in response to increasing NaCl concentration.” for “GVL.”"}}}
{"smiles": "CC1CCC(=O)O1", "note": "(stereo not drawn) [GVL, gamma-valerolactone]", "values": [{"measurement": "growth in the presence of GVL", "setting": "[1]", "result": "very significant growth"}, {"measurement": "growth in the presence of GVL", "setting": "[2]", "result": "very significant growth"}, {"measurement": "impact of concentration on cell growth as compared to NaCl", "setting": "[3]", "result": "stronger impact on cell growth"}]}
